In patent publication US20170114049A1, “2,5-DISUBSTITUTED CYCLOPENTANE CARBOXYLIC ACIDS FOR THE TREATMENT OF RESPIRATORY TRACT DISEASES” (BAYER PHARMA AKTIENGESELLSCHAFT, priority 2014, published 2017):

Experiments:
MMP-3 = target: T1, MMP-3 (Homo sapiens, UniProt P08254); assay: In vitro MMP-3 inhibition test; format: biochemical
T1 construct: purchased R&D Systems 513-MP
Description: (§1) The MMP-mediated amidolytic cleavage of a suitable peptide substrate leads to an increase in fluorescent light here too. The signal intensity of the fluorescent light is directly proportional to the enzyme activity. The active concentration of a test compound at which half the enzyme is inhibited (50% signal intensity of the fluorescent light) is reported as the […].
Recombinant MMP-3 (from R&D Systems, 513-MP) is chemically activated in accordance with the manufacturer's instructions using APMA. 1 μl of the test compound to be analysed (as a solution in DMSO, suitable concentrations, for example, 1 nM to 30 μM) is pipetted into 24 μl of activated enzyme (final concentration, for example, 2 nM) in reaction buffer (50 mM Tris/HCl pH 7.5, 10 mM CaCl2, 150 mM NaCl, 0.05% Brij®-35) in a white 384-hole microtiter plate (MTP). The enzymatic reaction is started by adding the intramolecularly quenched Mca-Arg-Pro-Lys-Pro-Val-Glu-Nval-Trp-Arg-Lys(Dnp)-NH2 substrate (final concentration, for example, 10 μM; R&D Systems, ES-002), so as to result in a total test volume of 50 μl. The course of the MMP-3 reaction is measured by measuring the fluorescence intensity (excitation 320 nm, emission 410 nm) over a suitable period of time (for example over 120 min at a temperature of 32° C.).

mouse MMP-7 = target: T2, mouse MMP-7 (Mus musculus, UniProt Q10738); assay: In vitro mouse MMP-7 inhibition test; format: biochemical
T2 construct: purchased R&D Systems 2967-MP
T2 sequence (Q10738 95-264): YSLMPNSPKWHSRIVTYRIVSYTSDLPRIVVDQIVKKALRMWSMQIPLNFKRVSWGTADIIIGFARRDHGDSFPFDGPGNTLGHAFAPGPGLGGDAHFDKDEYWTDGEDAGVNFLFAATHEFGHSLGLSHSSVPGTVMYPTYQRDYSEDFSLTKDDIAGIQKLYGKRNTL
Description: as §1
Recombinant mouse MMP-7 (from R&D Systems, 2967-MP) is chemically activated in accordance with the manufacturer's instructions using APMA. 1 μl of the test compound to be analysed (as a solution in DMSO, suitable concentrations, for example, 1 nM to 30 μM) is pipetted into 24 μl of activated enzyme (final concentration, for example, 0.5 nM) in reaction buffer (50 mM Tris/HCl pH 7.5, 10 mM CaCl2, 150 mM NaCl, 0.05% Brij®-35) in a white 384-hole microtiter plate (MTP). The enzymatic reaction is started by adding the intramolecularly quenched Mca-Lys-Pro-Leu-Gly-Leu-Dpa(Dnp)-Ala-Arg-NH2 substrate (final concentration, for example, 5 μM; R&D Systems, ES-010), so as to result in a total test volume of 50 μl. The course of the MMP-7 reaction is measured by measuring the fluorescence intensity (excitation 320 nm, emission 410 nm) over a suitable period of time (for example over 120 min at a temperature of 32° C.).

rat hepatocytes = assay: Hepatocyte assay for determination of metabolic stability; conditions: after incubation with rat hepatocytes
Description: Seven samples from the incubation solution are taken for the LC-MS analysis within a fixed time pattern, in order to determine the half-life (i.e. the degradation) of the particular compound. This half life is used to calculate various “Clearance” parameters (CL) and “Fmax” values (see below).
The CL and Fmax values are a measure of the phase 1 and phase 2 metabolism of the compounds in the hepatocytes. In order to minimize the influence of the organic solvent on the enzymes in the incubation batches, the concentration thereof is generally limited to 1% (acetonitrile) or 0.1% (DMSO).
For all species and breeds, a hepatocyte cell count in the liver of 1.1*10^8 cells/g of liver is expected.
The parameters calculated and the meanings thereof are: • Fmax well-stirred [%] maximum possible bioavailability after oral administration • Calculation: (1-CLblood well-stirred/QH)*100 • CLblood well-stirred [L/(h*kg)] calculated blood clearance (well-stirred model) • Calculation: (QH*CLintrinsic)/(QH+CL′intrinsic) • CL′intrinsic[ml/(min*kg)] maximum ability of the liver (of the hepatocytes) to metabolize a compound (assuming that the liver blood flow is not rate-limiting) • Calculation: CLintrinsic, apparent* species-specific hepatocyte count [1.1* 10^8/g liver]*species-specific liver weight [g/kg] • CL′intrinsic, apparent[ml/(min*mg)] normalizes the elimination constant by dividing it by the hepatocyte cell count x used (x*10^6/ml) • Calculation: kcl[1/min]/(cell count [x*10^6]/incubation volume [ml]) • (QH=species-specific liver blood flow).

T1 sequence (P08254 100-477): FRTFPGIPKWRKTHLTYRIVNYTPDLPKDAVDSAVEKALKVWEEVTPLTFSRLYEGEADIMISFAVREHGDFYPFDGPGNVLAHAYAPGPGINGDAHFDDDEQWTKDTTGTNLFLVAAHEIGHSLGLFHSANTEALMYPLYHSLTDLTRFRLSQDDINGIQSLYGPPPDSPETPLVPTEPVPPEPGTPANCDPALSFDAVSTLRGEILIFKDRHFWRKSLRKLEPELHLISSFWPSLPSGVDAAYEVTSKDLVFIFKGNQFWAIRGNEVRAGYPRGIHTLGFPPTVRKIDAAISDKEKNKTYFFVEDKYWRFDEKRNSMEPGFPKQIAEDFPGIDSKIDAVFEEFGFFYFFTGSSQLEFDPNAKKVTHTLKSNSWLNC

Compound	IC50 (MMP-3) [nM]	IC50 (mouse MMP-7) [nM]	CLblood (calculated blood clearance, well-stirred) (rat hepatocytes) [mL/min/kg]	Fmax (maximum possible bioavailability after oral administration, well-stirred) (rat hepatocytes) [%]
O=C(O)[C@H]1[C@H](Cn2nnc3ccc(C(F)(F)F)cc3c2=O)CC[C@@H]1C(=O)c1ccc(OCC2CCOCC2)cc1 (racemic) [Example 7, (+/−)-(1RS,2SR,5RS)-2-{[4-Oxo-6-(trifluoromethyl)-1,2,3-benzotriazin-3(4H)-yl]methyl}-5-[4-(tetrahydro-2H-pyran-4-ylmethoxy)benzoyl]cyclopentanecarboxylic acid]	190	–	–	–
Cc1ccc2nnn(C[C@@H]3CC[C@H](C(=O)c4ccc(OCCC5CCOCC5)cc4)[C@H]3C(=O)O)c(=O)c2c1 (racemic) [Example 19, (+/−)-(1RS,2SR,5RS)-2-[(6-Methyl-4-oxo-1,2,3-benzotriazin-3(4H)-yl)methyl]-5-{4-[2-(letrahydro-2H-pyran-4-yl)ethoxy]benzoyl}cyclopentanecarboxylic acid]	1400	630	–	–
O=C(O)[C@@H]1[C@@H](Cn2nnc3ccccc3c2=O)CC[C@H]1C(=O)c1ccc(OCCC2CCOCC2)cc1 (single isomer, unassigned) [Example 5, (+)-(1RS,2SR,5RS)-2-[(4-Oxo-1,2,3-benzotriazin-3(4H)-yl)methyl]-5-{4-[2-(tetrahydro-2H-pyran-4-yl)ethoxy]benzoyl}cyclopentanecarboxylic acid]	360	130	–	–
O=C(O)[C@@H]1[C@@H](Cn2nnc3ccc(C(F)(F)F)cc3c2=O)CC[C@H]1C(=O)c1ccc(OCCC2CCOCC2)cc1 (single isomer, unassigned) [Example 11, (+)-(1RS,2SR,5RS)-2-{[4-Oxo-6-(trifluoromethyl)-1,2,3-benzotriazin-3(4H)-yl]methyl}-5-{4-[2-(tetrahydro-2H-pyran-4-yl)ethoxy]benzoyl}cyclopentanecarboxylic acid]	260	210	–	–
O=C(O)[C@@H]1[C@@H](Cn2nnc3ccc(C(F)(F)F)cc3c2=O)CC[C@H]1C(=O)c1ccc(SCC2CCOCC2)cc1 (single isomer, unassigned) [Example 15, (+)-(1RS,2SR,5RS)-2-{[4-Oxo-6-(trifluoromethyl)-1,2,3-benzotriazin-3(4H)-yl]methyl}-5-{4-[(tetrahydro-2H-pyran-4-ylmethyl)sulphanyl]benzoyl}cyclopentanecarboxylic acid]	95	–	–	–
Cc1ccc2nnn(C[C@H]3CC[C@@H](C(=O)c4ccc(OCCC5CCOCC5)cc4)[C@@H]3C(=O)O)c(=O)c2c1 (single isomer, unassigned) [Example 20, (+)-(1RS,2SR,5RS)-2-[(6-Methyl-4-oxo-1,2,3-benzotriazin-3(4H)-yl)methyl]-5-{4-[2-(tetrahydro-2H-pyran-4-yl)ethoxy]benzoyl}cyclopentanecarboxylic acid]	440	200	–	–
O=C(O)[C@H]1[C@H](Cn2nnc3ccccc3c2=O)CC[C@@H]1C(=O)c1ccc(OCC2CCOCC2)cc1 (stereo in doubt) [Example 1, (+/−)-(1RS,2SR,5RS)-2-[(4-Oxo-1,2,3-benzotriazin-3(4H)-yl)methyl]-5-[4-(tetrahydro-2H-pyran-4-ylmethoxy)benzoyl]cyclopentanecarboxylic acid]	1100	85	17	75.7
O=C(O)[C@@H]1[C@@H](Cn2nnc3ccccc3c2=O)CC[C@H]1C(=O)c1ccc(OCC2CCOCC2)cc1 (stereo in doubt) [Example 2, (+)-(1RS,2SR,5RS)-2-[(4-Oxo-1,2,3-benzotriazin-3(4H)-yl)methyl]-5-[4-(tetrahydro-2H-pyran-4-ylmethoxy)benzoyl]cyclopentanecarboxylic acid]	710	52	7.33	89.5
O=C(O)[C@H]1[C@H](Cn2nnc3ccccc3c2=O)CC[C@@H]1C(=O)c1ccc(OCCC2CCOCC2)cc1 (stereo in doubt) [Example 4, (+/−)-(1RS,2SR,5RS)-2-[(4-Oxo-1,2,3-benzotriazin-3(4H)-yl)methyl]-5-{4-[2-(tetrahydro-2H-pyran-4-yl)ethoxy]benzoyl}cyclopentanecarboxylic acid]	–	1400	–	–
O=C(O)[C@H]1[C@H](Cn2nnc3ccc(C(F)(F)F)cc3c2=O)CC[C@@H]1C(=O)c1ccc(OCCC2CCOCC2)cc1 (stereo in doubt) [Example 10, (+/−)-(1RS ,2S R,5RS)-2-{[4-Oxo-6-(trifluoromethyl)-1,2,3-benzotriazin-3(4H)-yl]methyl}-5-{4-[2-(tetrahydro-2H-pyran-4-yl)ethoxy]benzoyl}cyclopentanecarboxylic acid]	120	130	–	–
(+)-(1RS,2SR,5RS)-2-{[4-Oxo-6-(trifluoromethyl)-1,2,3-benzotriazin-3(4H)-yl]methyl}-5-[4-(tetra-hydro-2H-pyran-4-ylmethoxy)benzoyl]cyclopentanecarboxylic acid [Example 8]	100	–	4.83	93.1
